From PubChem BioAssay (NCI)
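Five concentrations, 48 hours, 96-well plates. Here, GI50 denotes the concentration required for 50% inhibition of growth. TGI: total growth inhibition.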

Tests used:
Experiment in all cases: growth of human tumour cells (NCI), 48 h
U251 CNS = tested on: U251 CNS
SK-MEL-5 melanoma = tested on: SK-MEL-5 melanoma
SF-295 CNS = tested on: SF-295 CNS
SF-539 CNS = tested on: SF-539 CNS
NCI/ADR-RES ovarian = tested on: NCI/ADR-RES ovarian
OVCAR-5 ovarian = tested on: OVCAR-5 ovarian
CCRF-CEM leukemia = tested on: CCRF-CEM leukemia
OVCAR-8 ovarian = tested on: OVCAR-8 ovarian
IGROV1 ovarian = tested on: IGROV1 ovarian
MALME-3M melanoma = tested on: MALME-3M melanoma
SK-OV-3 ovarian = tested on: SK-OV-3 ovarian

Row | Compound | TGI (U251 CNS) | TGI (SK-MEL-5 melanoma) | TGI (SF-295 CNS) | TGI (SF-539 CNS) | TGI (NCI/ADR-RES ovarian) | TGI (OVCAR-5 ovarian) | TGI (CCRF-CEM leukemia) | TGI (OVCAR-8 ovarian) | TGI (IGROV1 ovarian) | TGI (MALME-3M melanoma) | TGI (SK-OV-3 ovarian) | GI50 (U251 CNS) | GI50 (SK-MEL-5 melanoma) | GI50 (SF-295 CNS) | GI50 (SF-539 CNS) | GI50 (NCI/ADR-RES ovarian) | GI50 (OVCAR-5 ovarian) | GI50 (OVCAR-8 ovarian) | GI50 (SK-OV-3 ovarian)
1 | Cc1ccc(/C=C/C(=O)Oc2ccc(/C=C3\CCC/C(=C\c4ccc(OC(=O)/C=C/c5ccc(C)cc5)cc4)C3=O)cc2)cc1 | > 100 µM | > 100 µM | > 100 µM | > 100 µM | > 100 µM | > 100 µM | > 100 µM | > 100 µM |  |  |  |  |  |  |  |  |  |  | 
2 | CCOC(=O)c1[nH]cc(C)c1-c1cccn1-c1ccc(Cl)cc1[N+](=O)[O-] | 33.1 µM | 28.1 µM | 83 µM | 43.9 µM | 52.9 µM | > 100 µM | 64.3 µM | 78.9 µM | 49.9 µM |  |  |  |  |  |  |  |  |  | 
3 | C/C(=N\Nc1nc2cc(Cl)ccc2s1)c1ccccn1 | 6.57 µM | 13.6 µM |  | > 100 µM |  | > 100 µM | > 75.4 µM | > 40.4 µM |  | > 25.6 µM | 33.6 µM |  |  |  |  |  |  |  | 
4 | O=C1/C(=C/c2ccc(Cl)cc2)Oc2cc(O)ccc21 | 76.1 µM | 51.5 µM | > 100 µM | 61.3 µM | 79.3 µM |  | 52 µM | > 100 µM | > 100 µM |  | 78.8 µM |  |  |  |  |  |  |  | 
5 | Cn1c(-c2ccc[se]2)ccc1-c1ccc(C=O)[se]1 | 25.4 µM | > 100 µM | 58.8 µM | 23 µM | 9.13 µM |  | 14.1 µM | 42.2 µM | 0.487 µM |  | 42.3 µM |  |  |  |  |  |  |  | 
6 | CC1(C)OC[C@H](C(=N)OCc2ccccc2)O1 | > 100 µM | > 100 µM | > 100 µM | > 100 µM |  | > 100 µM | > 100 µM | > 100 µM | > 100 µM | > 100 µM | > 100 µM |  |  |  |  |  |  |  | 
7 | O=c1ccc2ccc(CBr)cc2o1 | 3.36 µM | 8.96 µM | 28.7 µM | 13.9 µM | 3.73 µM | 3.29 µM |  | 4.06 µM | 13.1 µM |  |  |  |  |  |  |  |  |  | 
8 | CCOC(=O)c1c(NS(=O)(=O)c2ccc(C)cc2)sc2c1CCCC2 |  | > 100 µM | > 100 µM | > 100 µM | > 100 µM | > 100 µM | > 100 µM | > 100 µM | > 100 µM |  |  |  |  |  |  |  |  |  | 
9 | O=c1[nH]c(=O)c2ncn(-c3ccc([N+](=O)[O-])cn3)c2[nH]1 | > 100 µM | > 100 µM | > 100 µM | > 100 µM | > 100 µM | > 100 µM | > 100 µM | > 100 µM |  |  | > 100 µM |  |  |  |  |  |  |  | 
10 | COC1/C=C/C=C(/C)Cc2cc(O)c(Cl)c(c2)N(C)C(=O)CC(OC(=O)C(C)C)C2(C)OC2C(C)C2CC1(O)NC(=O)O2 (stereo not given) | > 43.9 µM | < 0.0116 µM | > 100 µM |  |  | > 71.2 µM | > 100 µM | > 100 µM | > 100 µM | > 100 µM | > 100 µM |  |  |  |  |  |  |  | 
11 | CC1=NN(C(=O)Cc2ccccc2)C(=O)/C1=C\c1ccc([N+](=O)[O-])cc1 | > 100 µM | > 100 µM | > 100 µM | > 100 µM |  | > 100 µM | > 100 µM | > 100 µM | > 100 µM | > 100 µM | > 100 µM |  |  |  |  |  |  |  | 
12 | COc1ccc2c(c1)CC[C@@H]1C2CC[C@]2(C)C(=O)N(CCN(C)C)C(=O)CC12 (stereo not given in full) | > 100 µM | > 100 µM | > 100 µM | > 100 µM |  | > 100 µM | > 100 µM | > 100 µM | > 100 µM | > 100 µM | > 100 µM |  |  |  |  |  |  |  | 
13 | COC(C/C(=C/CO[Si](C(C)C)(C(C)C)C(C)C)C(=O)N(C(=O)OC(C)(C)C)c1ccccc1I)OC | > 100 µM | > 100 µM | 41 µM |  | > 100 µM | > 100 µM |  | > 100 µM | 29.6 µM |  | > 100 µM |  |  |  |  |  |  |  | 
14 | Cn1c(-c2ccc(-c3cc(-c4cccs4)c(-c4cccs4)n3C)cc2)cc(-c2cccs2)c1-c1cccs1 | > 100 µM | > 100 µM | > 100 µM | > 100 µM | > 100 µM |  | > 100 µM | > 100 µM | > 100 µM |  | > 100 µM |  |  |  |  |  |  |  | 
15 | CCC(C)(C)c1cc(O)c(C(C)(C)CC)cc1O | 6.23 µM | 5.26 µM | 5.18 µM | 9.23 µM | 11.3 µM | 17.6 µM |  | 23.5 µM |  |  | 14.9 µM | 2.18 µM | 2.2 µM | 2.25 µM | 2.7 µM | 2.96 µM | 4.97 µM | 4.48 µM | 4.41 µM
16 | COc1cc(C2S/C(=C/c3ccccc3)C(=O)N2Cc2ccccc2)cc(OC)c1OC (stereo not given) | > 100 µM | > 100 µM | > 100 µM |  | > 100 µM | > 100 µM | 87.2 µM | > 100 µM | > 100 µM |  | > 100 µM |  |  |  |  |  |  |  | 
17 | Fc1ccc(-c2sc(-c3ccsc3)cc2Cc2ccsc2)cc1 |  | > 10 µM | > 10 µM |  |  |  | > 10 µM | > 10 µM | > 10 µM | > 10 µM | > 10 µM |  |  |  |  |  |  |  | 
18 | Nc1nc(NCCOCP(=O)(O)O)c([N+](=O)[O-])c(=O)[nH]1 | > 100 µM |  | > 100 µM | > 100 µM |  |  | > 100 µM | > 100 µM | > 100 µM | > 100 µM | > 100 µM |  |  |  |  |  |  |  | 
19 | CCc1cc(C)cc2[n+]1CC=C2 | > 100 µM |  | > 100 µM | 95.6 µM |  | 56.6 µM |  | > 100 µM |  | 67.5 µM |  |  |  |  |  |  |  |  | 
